Assay results as given in article doi:10.1101/2021.04.08.439011v1 (biorxiv, 2021).

Tests used:
Conditions in all cases: 1 µM; binder
ALK(L1196M) = ALK(L1196M) (Homo sapiens, UniProt Q9UM73, L1196M)
AKT1 = AKT1 (Homo sapiens, UniProt P31749)
NEK1 = NEK1 (Homo sapiens, UniProt Q96PY6)
AAK1 = AAK1 (Homo sapiens, UniProt Q2M2I8)
EPHB6 = EPHB6 (Homo sapiens, UniProt O15197)
AURKB = AURKB (Homo sapiens, UniProt Q96GD4)
VPS34 = VPS34 (Homo sapiens, UniProt Q8NEB9)
IGF1R = IGF1R (Homo sapiens, UniProt P08069)
YSK4 = YSK4 (Homo sapiens, UniProt Q56UN5)
Sequence of YSK4 (Q56UN5 whole entry): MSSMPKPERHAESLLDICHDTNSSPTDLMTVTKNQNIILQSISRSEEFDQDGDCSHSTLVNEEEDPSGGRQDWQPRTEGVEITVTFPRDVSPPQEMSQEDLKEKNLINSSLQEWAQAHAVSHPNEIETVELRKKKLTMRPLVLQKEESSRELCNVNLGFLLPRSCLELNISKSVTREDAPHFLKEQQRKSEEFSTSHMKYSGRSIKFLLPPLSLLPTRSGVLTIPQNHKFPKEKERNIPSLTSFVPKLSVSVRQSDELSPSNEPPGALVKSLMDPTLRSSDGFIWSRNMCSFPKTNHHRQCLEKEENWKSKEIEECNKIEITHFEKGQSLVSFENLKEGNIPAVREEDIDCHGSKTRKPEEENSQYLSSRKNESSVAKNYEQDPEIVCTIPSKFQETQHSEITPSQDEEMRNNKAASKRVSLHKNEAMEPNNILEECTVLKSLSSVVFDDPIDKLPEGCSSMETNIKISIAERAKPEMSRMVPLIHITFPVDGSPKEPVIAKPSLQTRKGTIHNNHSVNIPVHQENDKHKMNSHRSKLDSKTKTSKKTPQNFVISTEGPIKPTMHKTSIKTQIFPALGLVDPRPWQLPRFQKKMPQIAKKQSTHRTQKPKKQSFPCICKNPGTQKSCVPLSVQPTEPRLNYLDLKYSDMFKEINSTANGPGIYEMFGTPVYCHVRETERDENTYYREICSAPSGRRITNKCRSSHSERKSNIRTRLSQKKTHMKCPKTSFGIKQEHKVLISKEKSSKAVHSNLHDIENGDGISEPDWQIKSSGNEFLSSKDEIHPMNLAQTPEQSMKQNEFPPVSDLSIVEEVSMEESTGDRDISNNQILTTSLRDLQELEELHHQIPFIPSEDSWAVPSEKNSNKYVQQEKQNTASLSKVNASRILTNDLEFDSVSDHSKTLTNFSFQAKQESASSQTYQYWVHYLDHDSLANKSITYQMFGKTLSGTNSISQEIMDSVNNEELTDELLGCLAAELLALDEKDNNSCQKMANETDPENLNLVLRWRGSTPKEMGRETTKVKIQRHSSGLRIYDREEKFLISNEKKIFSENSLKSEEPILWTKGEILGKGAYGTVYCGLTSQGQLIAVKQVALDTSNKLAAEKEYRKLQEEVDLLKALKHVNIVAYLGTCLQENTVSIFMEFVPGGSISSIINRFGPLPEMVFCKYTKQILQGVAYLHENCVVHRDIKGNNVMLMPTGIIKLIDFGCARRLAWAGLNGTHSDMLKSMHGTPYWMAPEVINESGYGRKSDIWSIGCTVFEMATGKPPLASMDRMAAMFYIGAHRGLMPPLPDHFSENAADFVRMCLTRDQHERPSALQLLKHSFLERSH

KIT(D816V) = KIT(D816V) (Homo sapiens, UniProt P10721, D816V)
EPHA4 = EPHA4 (Homo sapiens, UniProt P54764)
PKN1 = PKN1 (Homo sapiens, UniProt Q16512)
TNK1 = TNK1 (Homo sapiens, UniProt Q13470)
Sequence of TNK1 (Q13470 whole entry): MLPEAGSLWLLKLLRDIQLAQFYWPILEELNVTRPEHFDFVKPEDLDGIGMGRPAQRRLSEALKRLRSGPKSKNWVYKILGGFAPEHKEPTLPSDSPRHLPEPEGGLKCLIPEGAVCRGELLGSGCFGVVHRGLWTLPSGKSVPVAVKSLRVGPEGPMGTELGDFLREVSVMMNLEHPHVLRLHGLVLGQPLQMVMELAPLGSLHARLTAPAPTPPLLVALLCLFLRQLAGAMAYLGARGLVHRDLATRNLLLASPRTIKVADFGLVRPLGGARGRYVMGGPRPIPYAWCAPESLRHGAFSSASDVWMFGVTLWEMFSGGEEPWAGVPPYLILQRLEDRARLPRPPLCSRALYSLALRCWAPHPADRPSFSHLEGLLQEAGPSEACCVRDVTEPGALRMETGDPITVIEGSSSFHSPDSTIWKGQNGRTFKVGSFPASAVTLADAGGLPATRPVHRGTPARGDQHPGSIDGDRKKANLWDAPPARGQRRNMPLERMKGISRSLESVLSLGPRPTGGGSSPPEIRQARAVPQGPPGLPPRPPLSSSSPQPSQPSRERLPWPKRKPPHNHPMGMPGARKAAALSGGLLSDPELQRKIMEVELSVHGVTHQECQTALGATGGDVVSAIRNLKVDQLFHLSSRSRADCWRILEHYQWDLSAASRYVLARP

MTOR = MTOR (Homo sapiens, UniProt P42345)
EPHA8 = EPHA8 (Homo sapiens, UniProt P29322)
Sequence of EPHA8 (P29322 whole entry): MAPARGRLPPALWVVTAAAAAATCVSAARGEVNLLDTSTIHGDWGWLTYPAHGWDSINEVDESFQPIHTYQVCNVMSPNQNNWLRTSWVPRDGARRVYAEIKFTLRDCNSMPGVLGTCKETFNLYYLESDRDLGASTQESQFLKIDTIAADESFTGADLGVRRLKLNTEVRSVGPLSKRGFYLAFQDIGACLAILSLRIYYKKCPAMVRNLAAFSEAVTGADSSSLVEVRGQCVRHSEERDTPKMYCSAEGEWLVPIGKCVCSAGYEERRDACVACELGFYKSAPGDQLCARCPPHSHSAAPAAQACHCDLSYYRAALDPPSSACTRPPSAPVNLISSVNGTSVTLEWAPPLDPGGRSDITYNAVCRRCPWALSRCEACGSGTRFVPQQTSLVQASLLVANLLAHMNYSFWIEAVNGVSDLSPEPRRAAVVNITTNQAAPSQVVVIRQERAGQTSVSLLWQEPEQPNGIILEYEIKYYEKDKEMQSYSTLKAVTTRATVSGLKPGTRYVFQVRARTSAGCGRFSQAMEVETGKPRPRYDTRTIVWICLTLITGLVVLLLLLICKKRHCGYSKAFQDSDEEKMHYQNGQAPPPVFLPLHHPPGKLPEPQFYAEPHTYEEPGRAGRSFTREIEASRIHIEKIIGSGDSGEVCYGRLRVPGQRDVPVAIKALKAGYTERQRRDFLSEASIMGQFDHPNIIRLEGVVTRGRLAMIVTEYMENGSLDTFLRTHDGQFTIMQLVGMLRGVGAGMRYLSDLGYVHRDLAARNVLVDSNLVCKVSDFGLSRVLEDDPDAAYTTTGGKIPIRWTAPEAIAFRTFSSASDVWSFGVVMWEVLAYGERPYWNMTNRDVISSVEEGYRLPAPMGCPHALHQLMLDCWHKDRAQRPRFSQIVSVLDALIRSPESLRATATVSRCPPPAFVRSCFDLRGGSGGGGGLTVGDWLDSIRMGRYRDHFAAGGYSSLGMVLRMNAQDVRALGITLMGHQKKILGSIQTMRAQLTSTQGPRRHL

FLT3(K663Q) = FLT3(K663Q) (Homo sapiens, UniProt P36888, K663Q)
ERK8 = ERK8 (Homo sapiens, UniProt Q8TD08)
Sequence of ERK8 (Q8TD08 whole entry): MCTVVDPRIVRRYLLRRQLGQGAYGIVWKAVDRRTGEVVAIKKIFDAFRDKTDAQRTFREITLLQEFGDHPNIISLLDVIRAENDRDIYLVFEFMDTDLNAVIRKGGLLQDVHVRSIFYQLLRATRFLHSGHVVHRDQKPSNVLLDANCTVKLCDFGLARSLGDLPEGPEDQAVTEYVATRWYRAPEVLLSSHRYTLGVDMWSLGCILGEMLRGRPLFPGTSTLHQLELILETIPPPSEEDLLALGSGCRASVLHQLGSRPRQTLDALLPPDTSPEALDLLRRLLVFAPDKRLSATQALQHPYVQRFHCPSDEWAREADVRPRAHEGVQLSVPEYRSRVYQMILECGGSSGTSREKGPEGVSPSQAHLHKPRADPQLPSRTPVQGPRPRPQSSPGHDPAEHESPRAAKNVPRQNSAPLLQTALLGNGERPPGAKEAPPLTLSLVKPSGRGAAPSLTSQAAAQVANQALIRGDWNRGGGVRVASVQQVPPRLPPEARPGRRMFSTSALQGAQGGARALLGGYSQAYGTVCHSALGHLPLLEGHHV

ARK5 = ARK5 (Homo sapiens, UniProt O60285)
JNK3 = JNK3 (Homo sapiens, UniProt P53779)
AMPK-alpha2 = AMPK-alpha2 (Homo sapiens, UniProt P54646)
MELK = MELK (Homo sapiens, UniProt Q14680)
YANK1 = YANK1 (Homo sapiens, UniProt Q8WU08)
FLT3(ITD,F691L) = FLT3(ITD,F691L) (Homo sapiens, UniProt P36888, F691L/ITD)
FLT3(N841I) = FLT3(N841I) (Homo sapiens, UniProt P36888, N841I)
TNK2 = TNK2 (Homo sapiens, UniProt Q07912)
NEK7 = NEK7 (Homo sapiens, UniProt Q8TDX7)
Sequence of NEK7 (Q8TDX7 whole entry): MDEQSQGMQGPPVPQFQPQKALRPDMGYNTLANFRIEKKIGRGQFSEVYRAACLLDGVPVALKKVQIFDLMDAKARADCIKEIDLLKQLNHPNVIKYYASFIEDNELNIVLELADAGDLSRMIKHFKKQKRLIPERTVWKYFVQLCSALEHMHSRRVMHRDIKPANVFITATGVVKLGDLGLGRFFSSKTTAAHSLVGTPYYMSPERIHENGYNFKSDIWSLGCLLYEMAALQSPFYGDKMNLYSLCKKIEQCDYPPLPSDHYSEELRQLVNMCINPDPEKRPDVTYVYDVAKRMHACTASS

EGFR(G719S) = EGFR(G719S) (Homo sapiens, UniProt P00533, G719S)
SRMS = SRMS (Homo sapiens, UniProt Q9H3Y6)
Sequence of SRMS (Q9H3Y6 whole entry): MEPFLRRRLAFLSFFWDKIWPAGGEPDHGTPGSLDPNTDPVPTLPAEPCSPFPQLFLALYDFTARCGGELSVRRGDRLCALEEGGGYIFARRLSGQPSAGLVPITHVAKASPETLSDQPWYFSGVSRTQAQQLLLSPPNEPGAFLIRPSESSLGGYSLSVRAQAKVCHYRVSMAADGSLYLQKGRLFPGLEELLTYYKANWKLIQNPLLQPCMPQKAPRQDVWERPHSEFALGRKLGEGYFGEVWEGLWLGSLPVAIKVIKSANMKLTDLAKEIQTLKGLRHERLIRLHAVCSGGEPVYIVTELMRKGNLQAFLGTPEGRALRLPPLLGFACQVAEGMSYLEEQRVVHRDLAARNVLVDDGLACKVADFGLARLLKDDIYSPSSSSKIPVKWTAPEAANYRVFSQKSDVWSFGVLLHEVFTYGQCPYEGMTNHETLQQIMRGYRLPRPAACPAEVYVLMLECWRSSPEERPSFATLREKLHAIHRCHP

AURKA = AURKA (Homo sapiens, UniProt O14965)
Sequence of AURKA (O14965 whole entry): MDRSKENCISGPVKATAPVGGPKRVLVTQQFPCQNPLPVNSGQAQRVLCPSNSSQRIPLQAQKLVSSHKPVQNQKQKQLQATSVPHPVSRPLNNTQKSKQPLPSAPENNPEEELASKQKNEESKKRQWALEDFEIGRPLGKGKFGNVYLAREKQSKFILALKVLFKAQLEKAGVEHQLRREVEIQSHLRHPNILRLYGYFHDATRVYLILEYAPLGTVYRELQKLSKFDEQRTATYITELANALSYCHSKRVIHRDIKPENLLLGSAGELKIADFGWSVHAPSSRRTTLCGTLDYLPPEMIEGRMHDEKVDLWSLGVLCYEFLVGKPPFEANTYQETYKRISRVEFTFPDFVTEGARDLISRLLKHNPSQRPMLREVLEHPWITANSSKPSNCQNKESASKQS

PIP5K1C = PIP5K1C (Homo sapiens, UniProt O60331)

With `CNc1ncc2cc(-c3ccc(-c4cccc(C)n4)cc3Cl)c(=O)n(C[C@H]3OC[C@H](N)CO3)c2n1` [compound 6, G-5555] the “Percent Control” value (ALK(L1196M)) was 100%, the “Percent Control” value (AKT1) was 100% and the “Percent Control” value (NEK1) was 100%. The “Percent Control” value (AAK1) was 100%, the “Percent Control” value (EPHB6) was 9% and the “Percent Control” value (AURKB) was 23%. The “Percent Control” value (VPS34) was 100%, the “Percent Control” value (IGF1R) was 100% and the “Percent Control” value (YSK4) was 19%. For the same compound, the “Percent Control” value (KIT(D816V)) was 100%, the “Percent Control” value (EPHA4) was 100% and the “Percent Control” value (PKN1) was 92%. The “Percent Control” value (TNK1) was 100%, the “Percent Control” value (MTOR) was 83% and the “Percent Control” value (EPHA8) was 72%. For the same compound, the “Percent Control” value (FLT3(K663Q)) was 100%, the “Percent Control” value (ERK8) was 100% and the “Percent Control” value (ARK5) was 24%. The “Percent Control” value (JNK3) was 87%, the “Percent Control” value (AMPK-alpha2) was 47% and the “Percent Control” value (MELK) was 47%. For the same compound, the “Percent Control” value (YANK1) was 3.7%, the “Percent Control” value (FLT3(ITD,F691L)) was 43% and the “Percent Control” value (FLT3(N841I)) was 97%. The “Percent Control” value (TNK2) was 86%, the “Percent Control” value (NEK7) was 100% and the “Percent Control” value (EGFR(G719S)) was 100%. The “Percent Control” value (SRMS) was 100%, the “Percent Control” value (AURKA) was 43% and the “Percent Control” value (PIP5K1C) was 100%.
